# In US4276378A, “High sensitivity assays for angiotensin converting enzyme” (priority 1977, dated 1981):
# Peptide text beside a SMILES is read from it. * marks the point of attachment. Bz = O=C(c1ccccc1)*
# How the values were obtained:
# [1] = molecular target: T1, Guinea pig serum ACE (Cavia porcellus, UniProt H0UWL7); test: Kinetics of benzoyl-Phe-Ala-Pro hydrolysis (Example 6); assay type: biochemical; settings: for V (reaction velocity): 37° C., 10 minutes
# T1 sequence (H0UWL7 33-1234): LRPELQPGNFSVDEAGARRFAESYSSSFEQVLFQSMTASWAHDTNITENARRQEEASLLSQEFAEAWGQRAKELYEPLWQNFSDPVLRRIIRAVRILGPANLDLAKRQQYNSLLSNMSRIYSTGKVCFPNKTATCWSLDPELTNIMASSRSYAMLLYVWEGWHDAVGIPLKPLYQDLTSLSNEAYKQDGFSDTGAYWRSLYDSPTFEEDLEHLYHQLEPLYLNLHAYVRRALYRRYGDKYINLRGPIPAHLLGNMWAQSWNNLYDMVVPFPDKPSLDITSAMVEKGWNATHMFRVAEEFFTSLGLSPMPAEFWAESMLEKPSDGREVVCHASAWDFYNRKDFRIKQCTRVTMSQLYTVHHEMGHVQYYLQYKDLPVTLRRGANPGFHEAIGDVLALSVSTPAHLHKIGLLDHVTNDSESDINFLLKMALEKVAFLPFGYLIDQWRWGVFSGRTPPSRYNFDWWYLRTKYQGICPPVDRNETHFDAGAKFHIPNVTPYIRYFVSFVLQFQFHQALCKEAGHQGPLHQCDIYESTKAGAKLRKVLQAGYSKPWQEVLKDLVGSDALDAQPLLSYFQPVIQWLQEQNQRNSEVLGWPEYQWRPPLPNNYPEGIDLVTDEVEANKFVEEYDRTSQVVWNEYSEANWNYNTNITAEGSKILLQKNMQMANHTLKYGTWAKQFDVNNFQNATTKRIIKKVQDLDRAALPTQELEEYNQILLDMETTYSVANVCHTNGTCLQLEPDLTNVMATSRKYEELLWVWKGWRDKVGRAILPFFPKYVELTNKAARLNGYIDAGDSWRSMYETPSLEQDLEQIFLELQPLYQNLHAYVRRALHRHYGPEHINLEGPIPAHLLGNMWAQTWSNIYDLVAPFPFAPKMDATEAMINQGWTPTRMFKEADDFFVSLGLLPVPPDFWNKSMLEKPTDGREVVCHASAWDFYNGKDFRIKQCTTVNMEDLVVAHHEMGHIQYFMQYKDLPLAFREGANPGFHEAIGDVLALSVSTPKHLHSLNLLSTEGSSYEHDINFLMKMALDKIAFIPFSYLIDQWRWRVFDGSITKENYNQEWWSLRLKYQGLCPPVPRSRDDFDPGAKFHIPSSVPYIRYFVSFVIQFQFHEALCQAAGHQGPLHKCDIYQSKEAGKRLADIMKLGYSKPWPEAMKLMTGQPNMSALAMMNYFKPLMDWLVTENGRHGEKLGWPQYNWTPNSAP
# [2] = molecular target: T2, Guinea pig urinary ACE (Cavia porcellus, UniProt H0UWL7); test: Sulfate and chloride effects on substrate hydrolysis (Example 3); assay type: biochemical; settings: 37° C.
# T2 sequence (H0UWL7 33-1302): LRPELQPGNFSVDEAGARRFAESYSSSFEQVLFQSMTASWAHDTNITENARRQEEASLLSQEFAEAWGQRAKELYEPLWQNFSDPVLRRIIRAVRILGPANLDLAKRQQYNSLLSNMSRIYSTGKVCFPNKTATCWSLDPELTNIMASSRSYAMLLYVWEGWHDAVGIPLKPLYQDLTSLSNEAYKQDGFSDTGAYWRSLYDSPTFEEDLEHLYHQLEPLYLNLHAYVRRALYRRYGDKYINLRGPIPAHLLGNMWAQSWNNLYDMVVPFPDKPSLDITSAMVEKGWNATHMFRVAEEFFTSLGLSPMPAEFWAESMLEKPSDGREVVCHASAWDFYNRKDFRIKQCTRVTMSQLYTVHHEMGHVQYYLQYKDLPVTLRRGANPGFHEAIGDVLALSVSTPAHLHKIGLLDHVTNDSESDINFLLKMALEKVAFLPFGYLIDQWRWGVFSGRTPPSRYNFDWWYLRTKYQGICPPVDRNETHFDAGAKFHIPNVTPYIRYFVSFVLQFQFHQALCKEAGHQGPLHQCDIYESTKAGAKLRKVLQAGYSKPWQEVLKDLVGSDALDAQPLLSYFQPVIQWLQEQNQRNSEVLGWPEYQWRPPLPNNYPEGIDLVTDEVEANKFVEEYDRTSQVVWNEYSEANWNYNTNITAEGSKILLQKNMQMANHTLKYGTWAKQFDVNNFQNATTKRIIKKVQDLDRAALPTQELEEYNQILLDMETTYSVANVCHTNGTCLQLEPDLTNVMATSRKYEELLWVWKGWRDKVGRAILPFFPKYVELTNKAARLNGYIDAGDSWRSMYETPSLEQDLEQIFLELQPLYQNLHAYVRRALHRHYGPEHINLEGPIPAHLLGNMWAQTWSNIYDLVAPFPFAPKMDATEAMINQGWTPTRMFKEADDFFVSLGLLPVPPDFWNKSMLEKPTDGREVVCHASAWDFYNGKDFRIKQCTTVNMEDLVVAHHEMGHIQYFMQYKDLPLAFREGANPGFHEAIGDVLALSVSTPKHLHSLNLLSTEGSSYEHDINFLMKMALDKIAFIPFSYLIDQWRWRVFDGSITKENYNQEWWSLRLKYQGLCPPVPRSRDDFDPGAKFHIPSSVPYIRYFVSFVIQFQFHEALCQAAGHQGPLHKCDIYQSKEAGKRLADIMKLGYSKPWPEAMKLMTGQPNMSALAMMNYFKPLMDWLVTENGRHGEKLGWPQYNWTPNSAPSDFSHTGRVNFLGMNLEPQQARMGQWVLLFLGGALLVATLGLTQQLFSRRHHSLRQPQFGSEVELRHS
# [3] = system: ACE from rabbit lung; settings: removal of sodium chloride from the reaction medium; cited from earlier work
structure (smiles),measurement,setting,value
"C[C@H](NC(=O)[C@H](Cc1ccccc1)NC(=O)c1ccccc1)C(=O)N1CCC[C@H]1C(=O)O [benzoylPheAlaPro, benzoyl-Phe-Ala-Pro] (Bz-Phe-Ala-Pro-OH)",Vmax,"[1]; 0.05 M Hepes, pH 8.0, 0.15 M NaCl, Guinea pig serum diluted 1:1000",10 pmol/min/mL
same,Km,"[1]; 0.05 M Hepes, pH 8.0, 0.15 M NaCl, Lineweaver and Burke plot, read-out: apparent Km",14 µM
same,1/V,[1]; BenzPheAlaPro concentration 1.0 μM,1.50 mL·min/pmol
same,V (reaction velocity),"[1]; BenzPheAlaPro concentration 1.0 μM, 0.05 M Hepes, pH 8.0, 0.15 M NaCl",0.67 pmol/min/mL
same,1/V,[1]; BenzPheAlaPro concentration 5.0 μM,0.48 mL·min/pmol
same,V (reaction velocity),"[1]; BenzPheAlaPro concentration 5.0 μM, 0.05 M Hepes, pH 8.0, 0.15 M NaCl",2.08 pmol/min/mL
same,1/V,[1]; BenzPheAlaPro concentration 10.0 μM,0.24 mL·min/pmol
same,V (reaction velocity),"[1]; BenzPheAlaPro concentration 10.0 μM, 0.05 M Hepes, pH 8.0, 0.15 M NaCl",4.17 pmol/min/mL
same,1/V,[1]; BenzPheAlaPro concentration 66.7 μM,0.11 mL·min/pmol
same,V (reaction velocity),"[1]; BenzPheAlaPro concentration 66.7 μM, 0.05 M Hepes, pH 8.0, 0.15 M NaCl",9.09 pmol/min/mL
same,Reaction Velocity-Percent of Substrate Hydrolyzed in 10 minutes,"[2]; benzPheAlaPro, 0.05 Hepes, pH 8.0, 0.15M HCl, Na2 SO4 concentration 0",4.4%
same,Reaction Velocity-Percent of Substrate Hydrolyzed in 10 minutes,"[2]; benzPheAlaPro, 0.05 Hepes, pH 8.0, 0.15M HCl, Na2 SO4 concentration 0.1",5.0%
same,Reaction Velocity-Percent of Substrate Hydrolyzed in 10 minutes,"[2]; benzPheAlaPro, 0.05 Hepes, pH 8.0, 0.15M HCl, Na2 SO4 concentration 0.2",4.45%
same,Reaction Velocity-Percent of Substrate Hydrolyzed in 10 minutes,"[2]; benzPheAlaPro, 0.05 Hepes, pH 8.0, 0.15M HCl, Na2 SO4 concentration 0.3",4.85%
same,Reaction Velocity-Percent of Substrate Hydrolyzed in 10 minutes,"[2]; benzPheAlaPro, 0.05 Hepes, pH 8.0, 0.15M HCl, Na2 SO4 concentration 0.5",5.6%
CC(C)C[C@H](NC(=O)[C@H](Cc1c[nH]cn1)NC(=O)CNC(=O)c1ccccc1)C(=O)O [HipHisLeu] (Bz-Gly-His-Leu-OH),Reaction Velocity-Percent of Substrate Hydrolyzed in 10 minutes,"[2]; HipHisLeu, 0.05M Hepes, pH 8.0, 0.0M NaCl, Na2 SO4 concentration 0",0%
same,Reaction Velocity-Percent of Substrate Hydrolyzed in 10 minutes,"[2]; HipHisLeu, 0.05M Hepes, pH 8.0, 0.0M NaCl, Na2 SO4 concentration 0.1",0%
same,Reaction Velocity-Percent of Substrate Hydrolyzed in 10 minutes,"[2]; HipHisLeu, 0.05M Hepes, pH 8.0, 0.0M NaCl, Na2 SO4 concentration 0.2",0%
same,Reaction Velocity-Percent of Substrate Hydrolyzed in 10 minutes,"[2]; HipHisLeu, 0.05M Hepes, pH 8.0, 0.0M NaCl, Na2 SO4 concentration 0.3",0%
same,Reaction Velocity-Percent of Substrate Hydrolyzed in 10 minutes,"[2]; HipHisLeu, 0.05M Hepes, pH 8.0, 0.0M NaCl, Na2 SO4 concentration 0.4",0.1%
same,Reaction Velocity-Percent of Substrate Hydrolyzed in 10 minutes,"[2]; HipHisLeu, 0.05M Hepes, pH 8.0, 0.0M NaCl, Na2 SO4 concentration 0.5",0.1%
same,Reaction Velocity-Percent of Substrate Hydrolyzed in 10 minutes,"[2]; HipHisLeu, 0.05M Hepes, pH 8.0, 0.0M NaCl, Na2 SO4 concentration 0.6",0.25%
same,Reaction Velocity-Percent of Substrate Hydrolyzed in 10 minutes,"[2]; HipHisLeu, 0.05M Hepes, pH 8.0, 0.0M NaCl, Na2 SO4 concentration 0.7",0.25%
same,Reaction Velocity-Percent of Substrate Hydrolyzed in 10 minutes,"[2]; HipHisLeu, 0.05M Hepes, pH 8.0, 0.0M NaCl, Na2 SO4 concentration 0.75",0.25%
same,Reaction Velocity-Percent of Substrate Hydrolyzed in 10 minutes,"[2]; HipHisLeu, 0.05M Hepes, pH 8.0, 0.0M NaCl, Na2 SO4 concentration 0.8",0.25%
same,Reaction Velocity-Percent of Substrate Hydrolyzed in 10 minutes,"[2]; HipHisLeu, 0.05M Hepes, pH 8.0, 0.0M NaCl, Na2 SO4 concentration 0.9",0.7%
same,Reaction Velocity-Percent of Substrate Hydrolyzed in 10 minutes,"[2]; HipHisLeu, 0.05M Hepes, pH 8.0, 0.0M NaCl, Na2 SO4 concentration 1.2",3.9%
same,Reaction Velocity-Percent of Substrate Hydrolyzed in 10 minutes,"[2]; HipHisLeu, 0.05M Hepes, pH 8.0, 0.1M NaCl, Na2 SO4 concentration 0",0.3%
same,Reaction Velocity-Percent of Substrate Hydrolyzed in 10 minutes,"[2]; HipHisLeu, 0.05M Hepes, pH 8.0, 0.1M NaCl, Na2 SO4 concentration 0.4",4.1%
same,Reaction Velocity-Percent of Substrate Hydrolyzed in 10 minutes,"[2]; HipHisLeu, 0.05M Hepes, pH 8.0, 0.1M NaCl, Na2 SO4 concentration 0.6",8.3%
same,Reaction Velocity-Percent of Substrate Hydrolyzed in 10 minutes,"[2]; HipHisLeu, 0.05M Hepes, pH 8.0, 0.1M NaCl, Na2 SO4 concentration 0.75",12.05%
same,Reaction Velocity-Percent of Substrate Hydrolyzed in 10 minutes,"[2]; HipHisLeu, 0.05M Hepes, pH 8.0, 0.1M NaCl, Na2 SO4 concentration 0.9",12.25%
same,inhibition of hydrolysis,[3],92%
